Patent publication US9265771B2, “Method for treating Lyme disease” (Zoetis Services LLC, priority 2012, dated 2016)
Several values for one entry are separate records, joined by “and”; a condition that tells them apart may be missing. Equal values may be shown once.

How the values were obtained:
[1] = test system: B. burgdorferi sensu stricto (B31 strain); assay: In-vitro assessment of cefovecin efficacy (live spirochetes in culture by light microscopy); type: cell-based, Borrelia burgdorferi; settings: for Number of B. burgdorferi spirochetes per field-of-view (geometric mean per ten field of views): cultures A, C
Protocol: B. burgdorferi sensu stricto (B31 strain) was cultured. The experimental (triplicate) groups included a control, 0.02 μg/mL cefovecin, and 2 μg/mL cefovecin. Cultures were viewed by light microscopy at 0, 6, 24, 30, 48, and 54 hours post inoculation to assess number of live spirochetes (Table 1).

B. burgdorferi [2] = assay: Study A: bacterial culture of skin biopsy samples for spirochetes; type: in vivo, beagle dogs
Protocol: Twenty-three adult female beagle dogs were used in this study; all were sero-negative for Borrelia, not vaccinated with any Borrelia spp vaccines, and acclimated at the study facility for seven days prior to any study activities. The study was conducted under National Research Council guidelines (1996. Dogs were randomized to a non-infected control (n=7 dogs) group, or infected groups (n=8 dogs/region) using ticks from two regions of the USA, Region A (New England (NE), i.e., Rhode Island) and Region B (Midwest (MW), i.e., Wisconsin). Dogs were infected on Day 0 with up to 30 Ixodes scapularis ticks per dog. Tick attachment was monitored daily and after nine days, remaining ticks were harvested and all dogs were treated with two topical applications of an approved acaricide observing a 30-day interval between applications. Dogs were monitored 21-days post-challenge for pyrexia, and the entire post-challenge period for clinical signs of Lyme disease (lameness, ataxia, anorexia, lymphadenopathy and depression).
Blood was collected from each dog weekly to Day 28, then every two-weeks for the remainder of the study (166 days). […] Two skin punch biopsies were collected near tick attachment sites from each dog every 28 days post-challenge for bacterial culture.
On Days 83 and 97, Convenia was administered (8 mg/kg bodyweight; subcutaneous injection). Treated dogs, 8 B. burgdorferi-positive and 4 controls, were compared to untreated cohorts (8 B. burgdorferi-positive, and 3 controls). Comparisons included serology, skin culture results and joint pathology.

B. burgdorferi [3] = assay: Study A: joint culture and microscopic pathology of joints and skin; type: in vivo, beagle dogs
Protocol: Comparisons included serology, skin culture results and joint pathology.
Ten joints from each dog were cultured for spirochetes and examined microscopically for changes. Joints included carpus, elbow, shoulder, stifle and tarsus on both the right and left, front and rear limbs. Skin sections were also examined for Lyme disease related changes (pathology). There were six joints from untreated dogs that cultured positive for spirochetes compared to none from dogs treated with Convenia. Microscopically, all untreated, infected dogs had skin sections with inflammatory and other changes as described for Lyme disease, whereas six of eight (75%) treated dogs had similar findings. With the exception of one treated dog with all joints free of pathology, all other dogs had at least two joints showing Lyme disease changes. Despite the microscopic findings, definitively attributing joint pathology to infection or amelioration of pathology as a result of Convenia therapy was equivocal.

B. burgdorferi [4] = assay: Study B: SNAP-4Dx ELISA in tick-infected dogs; type: in vivo, beagle dogs; settings: for SNAP-4Dx Positives, Number of Dogs: N = 8/group
From the text: (§1) Three outer surface proteins (Osp) on B. burgdorferi are important for diagnosis and prevention, and are expressed by the organism in response to its local environment. […] OspF is another surface protein that is generally observed in late-stage disease. The C in […] refers to a 25-amino acid, C6 peptide in the sixth invariable region of an outer membrane lipoprotein (VIsE). Antibody against C6 is highly accurate as a serologic diagnosis of Lyme disease independent of a subject's (e.g., canine) vaccination status. Further, the generation of C6 antibodies implies an active infection with viable spirochetes. Serological methods for detecting B. burgdorfer/Lyme disease were conducted using the IDEXX qualitative SNAP-4Dx ELISA and the Quantitative C6 (Quant C6 or QC6) diagnostic kits, which are enzyme linked immunosorbent assays against the previously described 25-amino-acid C6 peptide. QC6 ELISA data, units/mL, are useful for guidance in initiating and evaluating response to therapy (See Levy S A, O'Connor T P, Hanscom J L, Shields P, et al. Quantitative measurement of a C6 antibody following antibiotic treatment of Borrelia burgdorferi antibody-positive, nonclinical dogs. Clin Vacc Immunol 2008; 15(1):115-119 and Littman M P, Goldstein R E, Labato M A, et al. ACVIM Small Animal Concensus Statement on Lyme Disease in Dogs: Diagnosis, Treatment and Prevention. J Vet Intern Med 2006; 20: 422-434).
(§2) Thirty-two (18 male and 14 female) beagle dogs were sero-negative for Borrelia burgdorferi, not vaccinated with any Borrelia spp vaccines, and acclimated at the study facility for seven days. The study was conducted under National Research Council guidelines (1996). […] Field-caught Ixodes from the northeast USA were placed on the dogs without containment chambers for 10 days; after ticks fed to repletion, dogs were treated with two applications of an approved topical acaricide with a 30-day interval between applications.
(§3) Forty days post-challenge, and prior to antibiotic treatments, blood was collected from each dog as were two skin biopsy punch samples near tick attachment sites. Blood was collected approximately monthly post-treatment. Skin biopsies were taken near the tick attachment site on Days 48/49, 118, 146, 180, and 315. Serum antibodies to Borrelia were assayed using the IDEXX SNAP-4Dx and QC6 ELISA. In cooperation with Cornell University, serum samples were analyzed using fluorescent-bead-based multiplex assays detecting antibodies against B. burgdorferi outer surface proteins OspA, OspC, and OspF. Data were expressed as median fluorescent intensities (MFI), and shown to be specific and sensitive to provide interpretative guidelines regarding infection. The skin biopsies were collected for a polymerase chain reaction (PCR; FlaB) assay and cultured for spirochete detection. At the end of the study, blood and skin biopsies were collected and synovial tissue from the joints were harvested at necropsy.
(§4) On Day 75 and Day 89 Convenia was administered to the eight dogs in T04 (8 mg/kg bodyweight; subcutaneous injection). The other treated groups received their respective regimens daily and orally for 30 days from Days 75 to 104. […] Dogs in T01 served as infected, untreated, controls. Inter-treatment comparisons to evaluate antibiotic efficacy included clinical signs, serology, culture results and pathology.

B. burgdorferi [5] = assay: Study B: QC6 ELISA in tick-infected dogs; type: in vivo, beagle dogs; settings: 8 dogs/group
From the text: as §1, §2, §3, §4

[6] = test system: B. burgdorferi outer surface protein OspC; assay: Study B: fluorescent-bead-based multiplex assay, antibodies against OspC; type: in vivo, beagle dogs; settings: Day 111
Protocol: as §2
as §3, with “At the end of the study, blood and skin biopsies were collected and synovial tissue from the joints were harvested at necropsy.” left out

[7] = canine; cited from earlier work
[8] = prior to treatment, of eight dogs

CO/N=C(\C(=O)N[C@@H]1C(=O)N2C(C(=O)[O-])=C([C@@H]3CCCO3)CS[C@H]12)c1csc(N)n1.[Na+] [Convenia, (6R,7R)-7-[[(2Z)-(2-amino-4-thiazolyl)(methoxyimino)acetyl]-amino]-8-oxo-3-[(2S)-tetrahydro-2-furanyl]-5-thia-1-azabicyclo[4.2.0]oct-2-ene-2-carboxylic acid, monosodium salt]
Number of B. burgdorferi spirochetes per field-of-view (geometric mean per ten field of views) ([1]; 0.02 μg/mL, 0 hours): 0 | Number of B. burgdorferi spirochetes per field-of-view (geometric mean per ten field of views) ([1]; 0.02 μg/mL, 24 hours, listed as cefovecin, monosodium salt): 1.7 and 2.1 and 2.0 | Number of B. burgdorferi spirochetes per field-of-view (geometric mean per ten field of views) ([1]; 0.02 μg/mL, 48 hours, listed as cefovecin, monosodium salt): 7.2 and 4.1 and 5.9 | Number of B. burgdorferi spirochetes per field-of-view (geometric mean per ten field of views) ([1]; 0.02 μg/mL, 54 hours, listed as cefovecin, monosodium salt): 8.1 and 10.2 and 9.0 | Retardation of growth of B. burgdorferi ([1]; 0.02 μg/mL, in 54 hours): at least 30% | Time after which B. burgdorferi is eliminated in culture ([1]; 2 μg/mL): about 24 hours | Number of B. burgdorferi spirochetes per field-of-view (geometric mean per ten field of views) ([1]; 2 μg/mL, 0 hours): 0 | Number of B. burgdorferi spirochetes per field-of-view (geometric mean per ten field of views) ([1]; 2 μg/mL, 30 hours): 0 | Number of B. burgdorferi spirochetes per field-of-view (geometric mean per ten field of views) ([1]; 2 μg/mL, 48 hours): 0 | Number of B. burgdorferi spirochetes per field-of-view (geometric mean per ten field of views) ([1]; 2 μg/mL, 54 hours): 0 | Bacterial culture of skin for spirochetes (B. burgdorferi [2]; post-treatment (Days 111 to 166), 8 mg/kg sc Days 83 and 97): all were negative on bacterial culture | Dogs culture-positive for spirochetes from skin (B. burgdorferi [2]; [8]): 88% | Number of dogs culture-positive for spirochetes from skin (B. burgdorferi [2]; [8]): Seven | Number of treated dogs with all joints free of pathology (B. burgdorferi [3]; dog, in vivo): one | Number of treated dogs with skin sections with inflammatory and other changes as described for Lyme disease (B. burgdorferi [3]; of eight treated infected dogs): six | Treated dogs with skin sections with inflammatory and other changes as described for Lyme disease (B. burgdorferi [3]; of eight treated infected dogs): 75% | Joints that cultured positive for spirochetes (B. burgdorferi [3]; ten joints per dog, six in untreated dogs): none | Grade of inflammatory changes in joints (B. burgdorferi [3]; untreated dogs: moderate to marked): none to mild | SNAP-4Dx Positives, Number of Dogs (B. burgdorferi [4]; Day 48 (pre-treatment; antibiotics from Day 75)): 6 | SNAP-4Dx Positives, Number of Dogs (B. burgdorferi [4]; Day 111): 5 | SNAP-4Dx Positives, Number of Dogs (B. burgdorferi [4]; Day 145): 1 | SNAP-4Dx Positives, Number of Dogs (B. burgdorferi [4]; Day 179): 2 | SNAP-4Dx Positives, Number of Dogs (B. burgdorferi [4]; Day 221): 0 | SNAP-4Dx Positives, Number of Dogs (B. burgdorferi [4]; Day 251): 0 | SNAP-4Dx Positives, Number of Dogs (B. burgdorferi [4]; Day 281): 0 | SNAP-4Dx Positives, Number of Dogs (B. burgdorferi [4]; Day 315): 0 | SNAP-4Dx Positives, Number of Dogs (B. burgdorferi [4]; Day −15 (pre-infection)): 0 | SNAP-4Dx positive dogs (B. burgdorferi [4]; rest of the study after Day 179): none positive | Dogs Sero-converted to B. burgdorferi per QC6 ELISA (≧30 U/mL), (%) (B. burgdorferi [5]; Day 48 (pre-treatment)): 75.0% | Number of Dogs Sero-converted to B. burgdorferi per QC6 ELISA (≧30 U/mL), No. (B. burgdorferi [5]; Day 48 (pre-treatment)): 6 | Dogs Sero-converted to B. burgdorferi per QC6 ELISA (≧30 U/mL), (%) (B. burgdorferi [5]; Day 111): 75.0% | Number of Dogs Sero-converted to B. burgdorferi per QC6 ELISA (≧30 U/mL), No. (B. burgdorferi [5]; Day 111): 6 | Dogs Sero-converted to B. burgdorferi per QC6 ELISA (≧30 U/mL), (%) (B. burgdorferi [5]; Day 145): 0.0% | Number of Dogs Sero-converted to B. burgdorferi per QC6 ELISA (≧30 U/mL), No. (B. burgdorferi [5]; Day 145): 0 | Dogs Sero-converted to B. burgdorferi per QC6 ELISA (≧30 U/mL), (%) (B. burgdorferi [5]; Day 179): 0.0% | Number of Dogs Sero-converted to B. burgdorferi per QC6 ELISA (≧30 U/mL), No. (B. burgdorferi [5]; Day 179): 0 | Dogs Sero-converted to B. burgdorferi per QC6 ELISA (≧30 U/mL), (%) (B. burgdorferi [5]; Day 221): 0.0% | Number of Dogs Sero-converted to B. burgdorferi per QC6 ELISA (≧30 U/mL), No. (B. burgdorferi [5]; Day 221): 0 | Dogs Sero-converted to B. burgdorferi per QC6 ELISA (≧30 U/mL), (%) (B. burgdorferi [5]; Day 251): 0.0% | Number of Dogs Sero-converted to B. burgdorferi per QC6 ELISA (≧30 U/mL), No. (B. burgdorferi [5]; Day 251): 0 | Dogs Sero-converted to B. burgdorferi per QC6 ELISA (≧30 U/mL), (%) (B. burgdorferi [5]; Day 281): 0.0% | Number of Dogs Sero-converted to B. burgdorferi per QC6 ELISA (≧30 U/mL), No. (B. burgdorferi [5]; Day 281): 0 | Dogs Sero-converted to B. burgdorferi per QC6 ELISA (≧30 U/mL), (%) (B. burgdorferi [5]; Day 314): 0.0% | Number of Dogs Sero-converted to B. burgdorferi per QC6 ELISA (≧30 U/mL), No. (B. burgdorferi [5]; Day 314): 0 | Number of dogs above infected threshold (antibody-OspC) [6]: one | Elimination half-life [7]: about 133 hours
